Experiments:
[1] = test system: multiple myeloma cell lines; experiment: Studies with multiple myeloma cell lines; assay type: cell-based
TK-10 renal cancer = experiment: NCI 60-cell screen dose-response study, TK-10; assay type: cell-based
Experimental: (§1) TIR-199 activity in inhibiting cancer cell growth was tested in a National Cancer Institute (“NCI”) 60-cell screen in triplicate (see FIGS. 3-14).
(§2) The NCI 60-cell screens were initially tested with 10 μM dose of TIR-199. […] Due to the initial results being so promising, a full dose-response study was performed in triplicate with the NCI cell lines.

HCC-2998 colon cancer = experiment: NCI 60-cell screen dose-response study, HCC-2998; assay type: cell-based
Experimental: as §1, §2

OVCAR-5 = experiment: NCI 60-cell screen dose-response study, OVCAR-5; assay type: cell-based; conditions: Homo sapiens, dose-response study in triplicate, most sensitive cell line
Experimental: as §1, §2

60 cancerous cell lines = experiment: NCI 60-cell screen; assay type: cell-based
Experimental: as §1, §2

[2] = test system: NCI-H226 lung cancer line; experiment: NCI 60-cell screen dose-response study, NCI-H226; assay type: cell-based
Experimental: as §1, §2

cancerous cell lines = experiment: Confirmatory in vitro cell-based screens; conditions: confirmatory in-vitro experiments in various laboratories
PC3 prostate cancer = experiment: NCI 60-cell screen dose-response study, PC3; assay type: cell-based
Experimental: as §1, §2

RXF 393 renal cancer = experiment: NCI 60-cell screen dose-response study, RXF 393; assay type: cell-based
Experimental: as §1, §2

BT-549 breast cancer = experiment: NCI 60-cell screen dose-response study, BT-549; assay type: cell-based
Experimental: as §1, §2

Q: Which “potency compared with bortezomib” value [1] does the source give for CCCCCCCCCCCCNC(=O)N[C@H](C(=O)N[C@H]1/C=C/CCNC(=O)/C=C/[C@H](C)NC1=O)C(C)C [TIR-199] here?
A: nearly as potent as the FDA approved proteasome inhibitor, bortezomib

Q: What about the “sensitivity of cell line” value (TK-10 renal cancer) of the same compound?
A: particularly sensitive

Q: And the “sensitivity of cell line” value (HCC-2998 colon cancer)?
A: particularly sensitive

Q: And the IC50 (OVCAR-5)?
A: 10 nM

Q: What about the “growth suppression and/or apoptosis induction in dose response study” value (60 cancerous cell lines; 60 cancerous cell lines, varying log10 amounts (FIG. 3)) of the same compound?
A: suppressed the growth and/or induced apoptosis in every cancerous cell line

Q: And the “suppression of cancer cell growth” value (60 cancerous cell lines; initial single dose, 10 μM)?
A: effectively suppressed cancer cell growth universally across the cell lines

Q: What about the “effectiveness on kidney cancer activity” value (60 cancerous cell lines; kidney (renal) cancer lines) of the same compound?
A: surprisingly potent

Q: What about the “potency against cell line” value [2] of the same compound?
A: Particular potency

Q: And the “potency against cancerous cell lines” value (cancerous cell lines)?
A: low nanomolar potency

Q: What about the “sensitivity of cell line” value (PC3 prostate cancer) of the same compound?
A: particularly sensitive

Q: And the “sensitivity of cell line” value (RXF 393 renal cancer)?
A: particularly sensitive

Q: And the “sensitivity of cell line” value (BT-549 breast cancer)?
A: particularly sensitive

Source: US9399627B2, “Substituted macrocyclic compounds having proteasome inhibitory activity” (THE REGENTS OF THE UNIVERSITY OF CALIFORNIA, priority 2012, dated 2016)
